Measured values from patent publication US12606543B2, “Indole derivatives as serotonergic agents useful for the treatment of disorders related thereto” (priority 2023, dated 2026).
Like-named read-outs stand apart in the source and are kept apart here.

What was measured:
[1] = Liver microsomes stability, mouse; type: in vitro ADME; settings: for half-life at 2 μM / microsomal CLint at 2 μM / CLint scaled at 2 μM: male; for CLint scaled at 2 μM: read-out: Scaled-up CLint
Procedure: The objective of this study was to estimate in vitro metabolic stability of exemplary compounds of Formula (I) or a pharmaceutically acceptable salt, solvate, and/or prodrug thereof in pooled human, male rat, and male mouse liver microsomes. The concentrations of compounds in reaction systems were evaluated by LC-MS/MS for estimating the stability in pooled human, male rat, and male mouse liver microsomes. The in vitro intrinsic clearances of test compounds were determined as well.
A master solution in the “Incubation Plate” containing phosphate buffer, ultra-pure H2O, MgCl2 solution and liver microsomes was made according to Table 33. The mixture was pre-warmed at 37° C. water bath for 5 minutes.
40 μL of 10 mM nicotinamide adenine dinucleotide phosphate (NADPH) solution was added to each well. The final concentration of NADPH was 1 mM. The negative control samples were prepared by replacing NADPH with 40 μL of ultra-pure H2O. Samples were prepared in duplicate. Negative controls were prepared in singlet.
The reaction was started with the addition of 4 μL of 200 μM exemplary test compounds of the disclosure or control compounds to each master solution to get the final concentration of 2 μM. This study was performed in duplicate.
Aliquots of 50 μL were taken from the reaction solution at 0, 15, 30, 45, and 60 minutes. The reaction solutions were stopped by the addition of 4 volumes of cold methanol with IS (100 nM alprazolam, 200 nM imipramine, 200 nM labetalol, and 2 μM ketoprofen). Samples were centrifuged at 3,220 g for 40 minutes. Aliquot of 90 μL of the supernatant was mixed with 90 μL of ultra-pure H2O and then was used for LC-MS/MS analysis.
LC/MS analysis was performed for all samples from this study using a Shimadzu liquid chromatograph separation system equipped with degasser DGU-20A5R; solvent delivery unit LC-30AD; system controller SIL-30AC; column oven CTO-30A; CTC Analytics HTC PAL System. Mass spectrometric analysis was performed using a Triple Quad™ 5500 instrument.
All calculations were carried out using Microsoft Excel. Peak area ratios of test compound to internal standard (listed in the below table) were determined from extracted ion chromatograms.
All calculations were carried out using Microsoft Excel. Peak areas were determined from extracted ion chromatograms. The slope value, k, was determined by linear regression of the natural logarithm of the remaining percentage of the parent drug vs. incubation time curve.
The in vitro half-life (in vitro t1/2) was determined from the slope value:
Conversion of the in vitro t1/2 (min) into the in vitro intrinsic clearance (in vitro CLint, in μL/min/mg proteins) was done using the following equation (mean of duplicate determinations): […]
The objective of this study was to estimate in vitro metabolic stability of exemplary compounds of Formula (I) or a pharmaceutically acceptable salt, solvate and/or prodrug thereof in pooled human, male rat and male mouse liver microsomes. The concentrations of compounds in reaction systems were evaluated by LC-MS/MS for estimating the stability in pooled human, male rat and male mouse liver microsomes. The in vitro intrinsic clearances of test compounds were determined as well.
A master solution in the “Incubation Plate” containing phosphate buffer, ultra-pure H2O, MgCl2 solution and liver microsomes was made according to Table 67. The mixture was pre-warmed at 37° C. water bath for 5 minutes.
40 μL of 10 mM NADPH solution was added to each well. The final concentration of NADPH was 1 mM. The negative control samples were prepared by replacing NADPH with 40 μL of ultra-pure H2O. Samples were prepared in duplicate. Negative controls were prepared in singlet
Aliquots of 50 μL were taken from the reaction solution at 0, 15, 30, 45 and 60 minutes. The reaction solutions were stopped by the addition of 4 volumes of cold methanol with IS (100 nM alprazolam, 200 nM imipramine, 200 nM labetalol and 2 μM ketoprofen). […]

[2] = molecular target: human 5-HT2B receptor (Homo sapiens, UniProt P41595); assay: Human 5-HT2B positive allosteric modulator (PAM) assay; type: cell-based; design: expressed in transfected cells; host or cells: HEK293; settings: for Emax (% of serotonin): PAM mode, agonist at EC20, relative to maximum response of serotonin
Procedure: Compound potency (EC50) and efficacy (Max response) against the human 5-HT2B receptor in stably transfected HEK293 cells were determined in a GPCR cell-based assay.
For Positive Allosteric Modulator determination, cells were pre-incubated with sample followed by EC20 addition. Intermediate dilution of sample stocks were performed to generate 5× samples in assay buffer. 5 μL of 5× samples were added to cells and incubated at 37° C. for 10 mins. 5 μL of agonist at 6×EC20 concentration was added and cells were incubated at 37° C. for 120 mins. Final assay vehicle concentration was 1%. The results are expressed as percent efficacy relative to the maximum response of the control ligand (serotonin) in Table 14.
Compound potency (EC50) and efficacy (Max response) against the human 5-HT2B receptor in stably transfected HEK293 cells was determined in a GPCR cell-based assay.
For Positive Allosteric Modulator determination, cells were pre-incubated with sample followed by EC20 addition. Intermediate dilution of sample stocks was performed to generate 5× samples in assay buffer. 5 μL of 5× samples were added to cells and incubated at 37° C. for 10 mins. 5 μL of agonist at 6×EC20 concentration was added and the cells were incubated at 37° C. for 120 mins. The final assay vehicle concentration was 1%. The results are expressed as percent efficacy relative to the maximum response of the control ligand (serotonin) in Table 64.

[3] = Plasma protein binding by equilibrium dialysis, mouse; type: in vitro ADME; settings: for recovery at 6 h, 1 µM: CD-1, mouse, plasma; for fraction unbound at 6 h, 1 μM: CD-1, read-out: % Bound (converted)
Procedure: The final concentration of compound was 1 μM. The final concentration of DMSO was 0.5%. Ketoconazole was used as positive control in the assay.
The assay was performed in duplicate.
All calculations were carried out using Microsoft Excel. […] The percentages of bound compound were calculated as follows: […]
Ketoconazole was used as positive control in the assay.

[4] = pooled liver microsomes, mouse liver microsomes, 2 μM compound, 0.5 mg/mL microsomes
[5] = mouse liver microsomes, With Cofactors, 0 min
[6] = mouse liver microsomes, With Cofactors, 30 min
[7] = mouse liver microsomes, With Cofactors, 60 min
[8] = mouse liver microsomes, Without Cofactors, 0 min
[9] = mouse liver microsomes, Without Cofactors, 30 min
[10] = mouse liver microsomes, Without Cofactors, 60 min
[11] = PAM mode: pre-incubation with sample, then agonist at EC20, HEK293 cells, read-out: EC50
[12] = mouse plasma, equilibrium dialysis, 37° C., 6 hours

Chain of human 5-HT2B receptor (P41595 whole entry): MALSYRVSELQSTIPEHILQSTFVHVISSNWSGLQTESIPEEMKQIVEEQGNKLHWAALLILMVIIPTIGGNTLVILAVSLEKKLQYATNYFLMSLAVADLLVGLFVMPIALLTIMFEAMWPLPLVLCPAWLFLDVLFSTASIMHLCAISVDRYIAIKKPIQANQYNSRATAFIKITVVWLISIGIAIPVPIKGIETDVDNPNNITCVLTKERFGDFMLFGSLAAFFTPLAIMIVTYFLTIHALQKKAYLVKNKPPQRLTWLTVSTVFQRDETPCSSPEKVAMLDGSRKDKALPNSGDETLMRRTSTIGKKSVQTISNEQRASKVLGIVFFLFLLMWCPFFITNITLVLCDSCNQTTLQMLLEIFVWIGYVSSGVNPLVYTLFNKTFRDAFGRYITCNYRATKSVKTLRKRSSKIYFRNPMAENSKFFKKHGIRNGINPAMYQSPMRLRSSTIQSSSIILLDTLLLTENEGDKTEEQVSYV

Row | Structure (SMILES) | half-life at 2 μM [1, 4] [min] | microsomal CLint at 2 μM [1, 4] [µL/min/mg] | CLint scaled at 2 μM ([1]; mouse liver microsomes) [mL/min/kg] | Predicted hepatic CL ([1]; mouse liver microsomes) [mL/min/kg] | Remaining Percentage [1, 5] [%] | Remaining Percentage [1, 6] [%] | Remaining Percentage [1, 7] [%] | Remaining Percentage [1, 8] [%] | Remaining Percentage [1, 9] [%] | Remaining Percentage [1, 10] [%] | Emax (% of serotonin) ([2]; HEK293 cells) | EC50 [2, 11] [µM] | recovery at 6 h, 1 µM [3, 12] [%] | fraction unbound at 6 h, 1 μM [3, 12] | % Remaining @ 6 hours ([3]; mouse plasma, 6 hours) [%] | other results
1 | [2H]C([2H])(c1c[nH]c2ccc(OCCCCCN3C(=O)C4CCCCC4C3=O)cc12)[C@H]1CCCN1C([2H])([2H])[2H] (mixture of isomers) [Rac (R) I-248] | < 4.51 | > 307 | > 1340 | >84.35 | 100.00 | 0.15 | 0.19 | 100.00 | 99.54 | 95.85 | – | – | – | – | – | –
2 | [2H]C([2H])(c1c[nH]c2ccc(OCCCCCN3C(=O)[C@H]4CCCC[C@H]4C3=O)cc12)[C@H]1CCCN1C([2H])([2H])[2H] [Cis (R) I-248, 2-(5-((3-(((R)-1-(Methyl-d3)pyrrolidin-2-yl)methyl-d2)-1H-indol-5-yl)oxy)pentyl)hexahydro-1H-isoindole-1,3(2H)-dione] | – | – | – | – | – | – | – | – | – | – | 7.97 % of serotonin | > 10 | – | – | – | –
3 | [2H]C([2H])(c1c[nH]c2ccc(OCCCCN3C(=O)c4ccccc4C3=O)cc12)[C@H]1CCCN1C([2H])([2H])[2H] [(R) I-244, (R)-2-(4-((3-((1-(Methyl-d3)pyrrolidin-2-yl)methyl-d2)-1H-indol-5-yl)oxy)butyl)isoindoline-1,3-dione] | < 4.51 | > 307 | > 1340 | >84.35 | 100.00 | 0.00 | 0.00 | 100.00 | 98.38 | 86.59 | 26.89 % of serotonin | 0.0974 | 84.8 | 0.101 | 94.96 | –
4 | CSc1ccc2[nH]cc(C[C@H]3CCCN3C)c2c1 [(R) I-1, (R)-3-((1-Methylpyrrolidin-2-yl)methyl)-5-(methylthio)-1H-indole] | – | – | > 1340 | – | – | – | – | – | – | – | 0 % of serotonin | – | – | – | – | Predicted hepatic CL ([1]; Mouse liver microsomes): >84.35 mL/min/kg; half-life at 2 μM ([1]; Mouse liver microsomes, 2 μM, 0.5 mg/mL, NADPH, <4.51 if % remaining at 30 min below 1%): < 4.51 min; microsomal CLint at 2 μM ([1]; Mouse liver microsomes, 2 μM, 0.5 mg/mL, NADPH, >307.01 if % remaining at 30 min below 1%): > 307 µL/min/mg; Remaining Percentage (%) 0 min [1, 5]: 100.00%; Remaining Percentage (%) 30 min [1, 6]: 0.15%; Remaining Percentage (%) 60 min [1, 7]: 0.23%; Remaining Percentage (%) 0 min [1, 8]: 100.00%; Remaining Percentage (%) 30 min [1, 9]: 98.55%; Remaining Percentage (%) 60 min [1, 10]: 103.02%; recovery at 6 h, 1 µM ([3]; Mouse plasma, 1 μM, equilibrium dialysis 6 hours): 113%; fraction unbound at 6 h, 1 μM ([3]; Mouse plasma, 1 μM, equilibrium dialysis 6 hours, 37° C.): 0.521; % Remaining @ 6 hours ([3]; Mouse plasma, 1 μM, 6 hours, 37° C.): 112.85%; EC50 [2]: > 10 µM
5 | [2H]C([2H])(c1c[nH]c2ccc(OCCCCCN3C(=O)c4ccccc4C3=O)cc12)[C@H]1CCCN1C([2H])([2H])[2H] [(R) I-245, (R)-2-(5-((3-((1-(Methyl-d3)pyrrolidin-2-yl)methyl-d2)-1H-indol-5-yl)oxy)pentyl)isoindoline-1,3-dione] | 5.12 | 271 | 1180 | 83.65 | 100.00 | 1.72 | 0.25 | 100.00 | 100.00 | 93.17 | 0 % of serotonin | > 3.33 | – | – | – | –
6 | COCCN1CCC[C@@H]1Cc1c[nH]c2ccc(OC)cc12 [(R) I-98, (R)-5-Methoxy-3-((1-(2-methoxyethyl)pyrrolidin-2-yl)methyl)-1H-indole] | 14.4 | 96.3 | 421 | 74.16 | – | 100.00 | 14.54 | – | 100.00 | 100.99 | 0 % of serotonin | > 10 | 96.4 | 0.632 | 103.70 | –
